In brackets after ≈: the same amount, converted by molar mass. Activity calls are given as the source filed them. The calls are words filed in the database; no cut-off is given here.
How the values were obtained:
[1] = test system: Plasmodium falciparum; experiment: Antimalarial activity against chloroquine-sensitive Plasmodium falciparum NF54 after 24 hrs by hypoxanthine incorporation assay; type: functional, organism-based; conditions: NF54, 24 h
[2] = test system: Plasmodium falciparum; experiment: Antimalarial activity against chloroquine-resistant Plasmodium falciparum K1 after 24 hrs by hypoxanthine incorporation assay; type: functional, organism-based; conditions: K1, 24 h
[3] = test system: Plasmodium falciparum; experiment: Antimalarial activity against ring stage Plasmodium falciparum Dd2 at 1.82 uM after 72 hrs by DAPI-staining based confocal microscopy; type: functional
[4] = test system: Plasmodium falciparum; experiment: Antimalarial activity against ring stage Plasmodium falciparum 3D7 at 1.82 uM after 72 hrs by DAPI-staining based confocal microscopy; type: functional
[5] = Half life in human liver microsomes at 1 uM; type: ADME, Microsome
[6] = Kinetic solubility of the compound in phosphate buffer after 30 mins by nephelometry at pH 6.5; type: physicochemical; conditions: read-out: Kinetic_solubility
[7] = Intrinsic clearance in human liver microsomes at 1 uM up to 60 mins; type: ADME, Microsome; conditions: read-out: CLH
[8] = Plasma protein binding in human by reverse phase gradient HPLC analysis; type: ADME, cell-free; conditions: read-out: PPB (converted)
[9] = Partition coefficient, log D of the compound at pH 7.4 by phase gradient HPLC analysis; type: physicochemical; conditions: octanol/water
[10] = test system: Plasmodium berghei; experiment: Antimalarial activity against Plasmodium berghei ANKA expressing GFP infected in Sprague-Dawley rat assessed as mean survival days of host at 50 mg/kg, po administered as 4 doses; type: functional
[11] = test system: Plasmodium berghei; experiment: Antimalarial activity against Plasmodium berghei ANKA expressing GFP infected in Sprague-Dawley rat assessed as reduction in parasitemia at 50 mg/kg, po administered as 4 doses measured on day 4 post-infection by flow cytometry; type: functional; set-up: scale not given: the % may be the effect or the level left
[12] = test system: Plasmodium berghei; experiment: Antimalarial activity against Plasmodium berghei ANKA expressing GFP infected in Sprague-Dawley rat assessed as mean survival days of host at 30 mg/kg, po administered as single dose; type: functional
[13] = test system: Plasmodium berghei; experiment: Antimalarial activity against Plasmodium berghei ANKA expressing GFP infected in Sprague-Dawley rat assessed as reduction in parasitemia at 10 mg/kg, po administered as single dose measured on day 3 post-infection by flow cytometry; type: functional; set-up: scale not given: the % may be the effect or the level left
[14] = test system: Plasmodium berghei; experiment: Antimalarial activity against Plasmodium berghei ANKA expressing GFP infected in Sprague-Dawley rat assessed as reduction in parasitemia at 30 mg/kg, po administered as single dose measured on day 3 post-infection by flow cytometry; type: functional; set-up: scale not given: the % may be the effect or the level left
[15] = test system: Plasmodium berghei; experiment: Antimalarial activity against Plasmodium berghei ANKA expressing GFP infected in Sprague-Dawley rat assessed as mean survival days of host at 10 mg/kg, po administered as single dose; type: functional
[16] = test system: Plasmodium berghei; experiment: Antimalarial activity against Plasmodium berghei ANKA expressing GFP infected in Sprague-Dawley rat assessed as reduction in parasitemia at 3 mg/kg, po administered as single dose measured on day 3 post-infection by flow cytometry; type: functional; set-up: scale not given: the % may be the effect or the level left
[17] = test system: Plasmodium berghei; experiment: Antimalarial activity against Plasmodium berghei ANKA expressing GFP infected in Sprague-Dawley rat assessed as mean survival days of host at 3 mg/kg, po administered as single dose; type: functional
[18] = test system: Plasmodium berghei; experiment: Antimalarial activity against Plasmodium berghei ANKA expressing GFP infected in Sprague-Dawley rat assessed as mean survival days of host at 100 mg/kg, po administered as single dose; type: functional
[19] = test system: Plasmodium berghei; experiment: Antimalarial activity against Plasmodium berghei ANKA expressing GFP infected in Sprague-Dawley rat assessed as host survival at 3 mg/kg, po administered as single dose measured 6 days post-infection; type: functional, organism-based; set-up: dose 3 mg/kg
[20] = test system: Plasmodium berghei; experiment: Antimalarial activity against Plasmodium berghei ANKA expressing GFP infected in Sprague-Dawley rat assessed as total cure from parasite at 50 mg/kg, po administered as 4 doses measured on day 30 post-infection by flow cytometry; type: functional, organism-based; set-up: dose 50 mg/kg
[21] = test system: Plasmodium berghei; experiment: Antimalarial activity against Plasmodium berghei ANKA expressing GFP infected in Sprague-Dawley rat assessed as reduction in parasitemia at 100 mg/kg, po administered as single dose measured on day 3 post-infection by flow cytometry; type: functional; set-up: scale not given: the % may be the effect or the level left
[22] = test system: Plasmodium berghei; experiment: Antimalarial activity against Plasmodium berghei ANKA expressing GFP infected in Sprague-Dawley rat assessed as host survival at 30 mg/kg, po administered as single dose measured 6 days post-infection; type: functional, organism-based; set-up: dose 30 mg/kg

Row | Structure (SMILES) | IC50 [1] [nM] | IC50 [2] [nM] | half-life at 1 µM [5] [h] | solubility kinetic at 0.5 h [6] [µg/mL] | microsomal CLint at 1 µM [7] [µL/min/mg] | fraction unbound [8] | chromatographic logD [9] | also measured
1 | CS(=O)(=O)c1ccc(-c2cnc(N)c(-c3cccc(OC(F)(F)F)c3)c2)cc1 | 190 | 180 | – | – | – | – | – | –
2 | CS(=O)(=O)c1ccc(-c2cnc(N)c(-c3ccc(N4CCOCC4)cc3)c2)cc1 | 2460 | 2400 | – | – | – | – | – | –
3 | CS(=O)(=O)c1ccc(-c2cnc(N)c(-c3ccnc(C(F)(F)F)c3)c2)cc1 | 181 | 155 | – | – | – | – | – | –
4 | COc1ccc(-c2cnc(N)c(-c3ccc(O)c(OC)c3)c2)cc1 | – | – | – | – | – | – | – | Activity [3]: 50%; Activity [4]: 50%
5 | CS(=O)(=O)c1ccc(-c2cnc(N)c(-c3ccc(F)nc3)c2)cc1 | 640 | 500 | 4.12 | 25 (≈ 72.8 µM) | < 7 | 0.431 | 1.1 | –
6 | Cc1ccc(-c2cc(-c3ccc(S(C)(=O)=O)cc3)cnc2N)c2cccnc12 | 36 | 33 | 1.77 | 6.3 (≈ 16.2 µM) | 16 | 0.056 | 2.6 | –
7 | CS(=O)(=O)c1ccc(-c2cnc(N)c(-c3ccc(N4CCCC4)nc3)c2)cc1 | 456 | 540 | – | – | – | – | – | –
8 | CS(=O)(=O)c1ccc(-c2cnc(N)c(-c3ccc(S(C)(=O)=O)cc3)c2)cc1 | 80 | 80 | > 5.83 | 6.3 (≈ 15.7 µM) | < 5 | – | 2 | MSD [10]: 15 days; Activity [11]: 99.6%
9 | CS(=O)(=O)c1ccc(-c2cnc(N)c(-c3ccc(CO)nc3)c2)cc1 | 171 | 169 | > 4.17 | 25 (≈ 70.3 µM) | < 7 | 0.541 | 1.2 | –
10 | COc1ncc(-c2cc(-c3ccc(S(C)(=O)=O)cc3)cnc2N)cn1 | 260 | 280 | – | – | – | – | – | –
11 | CS(=O)(=O)c1ccc(-c2cnc(N)c(-c3ccc4nccnc4c3)c2)cc1 | 620 | 590 | – | – | – | – | – | –
12 | CS(=O)(=O)c1ccc(-c2cnc(N)c(-c3cccnc3)c2)cc1 | 575 | 818 | – | – | – | – | – | –
13 | CCN(CC)CCCC(C)Nc1ccnc2cc(Cl)ccc12 (stereo not given) [CHLOROQUINE] | – | – | – | – | – | – | – | MSD [12]: 9 days; Activity [13]: 99.5%; Activity [14]: 99.7%; MSD [15]: 7 days; Activity [16]: 83%; MSD [17]: 7 days; MSD [18]: 12 days
14 | CS(=O)(=O)c1ccc(-c2cnc(N)c(-c3cccc(C(F)(F)F)c3)c2)cc1 | 110 | 90 | > 4.17 | 3.1 (≈ 7.9 µM) | < 7 | 0.059 | 3.3 | –
15 | CN(C)CCNC(=O)c1ccc(-c2cc(-c3cc(F)c(F)c(F)c3)cnc2N)cc1 | – | – | – | – | – | – | – | Activity [3]: 50%; Activity [4]: 50%
16 | CS(=O)(=O)c1ccc(-c2cnc(N)c(-c3ccc(C(F)(F)F)c(F)c3)c2)cc1 | 78 | 58 | 2.05 | 1.6 (≈ 3.9 µM) | 14 | 0.052 | 3.1 | –
17 | Cc1ccc(-c2cc(-c3ccc(S(C)(=O)=O)cc3)cnc2N)cn1 | 28 | 29 | > 5.83 | 50 (≈ 147 µM) | < 5 | 0.256 | 1.8 | MSD [12]: 8 days; MSD [10]: >30 days; Activity [19]: inactive; Activity [14]: 99.2%; Activity [11]: 99.8%; Activity [16]: <40%; Activity [20]: Active; MSD [17]: 3 days

Row | Structure (SMILES) | IC50 [1] [nM] | IC50 [2] [nM] | half-life at 1 µM [5] [h] | solubility kinetic at 0.5 h [6] [µg/mL] | microsomal CLint at 1 µM [7] [µL/min/mg] | fraction unbound [8] | chromatographic logD [9] | also measured
18 | CS(=O)(=O)c1ccc(-c2cnc(N)c(-c3ccc4nonc4c3)c2)cc1 | 470 | 520 | – | – | – | – | – | –
19 | COc1ncccc1-c1cc(-c2ccc(S(C)(=O)=O)cc2)cnc1N | 1230 | 1110 | – | – | – | – | – | –
20 | CS(=O)(=O)c1ccc(-c2cnc(N)c(-c3ccc(C(F)(F)F)cc3Cl)c2)cc1 | 806 | 818 | – | – | – | – | – | –
21 | CS(=O)(=O)c1ccc(-c2cnc(N)c(-c3ccc(C#N)cc3)c2)cc1 | 160 | 150 | > 5.83 | 1.6 (≈ 4.58 µM) | < 5 | – | 2.4 | Activity [21]: >99.4%; MSD [12]: 10 days; MSD [10]: >30 days; Activity [14]: 99.1%; Activity [11]: 99.7%; MSD [18]: 14 days
22 | COc1cc(-c2cc(-c3ccc(S(C)(=O)=O)cc3)cnc2N)ccc1O | 49 | 49 | 1.72 | 6.3 (≈ 17 µM) | 17 | 0.172 | 1.9 | Activity [3]: >80%; Activity [4]: >80%
23 | CS(=O)(=O)c1ccc(-c2cnc(N)c(-c3ccc(-n4cccn4)cc3)c2)cc1 | 230 | 220 | – | – | – | – | – | –
24 | CS(=O)(=O)c1ccc(-c2cnc(N)c(-c3ccoc3)c2)cc1 | 1130 | 1120 | – | – | – | – | – | –
25 | Nc1ncc(-c2ccc(Cl)cc2)cc1-c1cccc(CO)c1 | – | – | – | – | – | – | – | Activity [3]: 50%; Activity [4]: 50%
26 | CS(=O)(=O)c1ccc(-c2cnc(N)c(-c3ccc(OCCN4CCCC4)cc3)c2)cc1 | 2070 | 2160 | – | – | – | – | – | –
27 | Cc1ccc(-c2cc(-c3ccc(S(C)(=O)=O)cc3)cnc2N)cc1C(F)(F)F | 21 | 19 | 1.25 | 1.6 (≈ 3.94 µM) | 23 | 0.031 | 3.6 | –
28 | COc1ncc(-c2cc(-c3ccc(S(C)(=O)=O)cc3)cnc2N)cc1Cl | 2230 | 2130 | – | – | – | – | – | –
29 | CS(=O)(=O)c1ccc(-c2cnc(N)c(-c3cnc(N)nc3)c2)cc1 | 120 | 120 | – | – | – | – | – | –
30 | Cc1nc2cc(-c3cc(-c4ccc(S(C)(=O)=O)cc4)cnc3N)ccc2s1 | 390 | 330 | – | – | – | – | – | –
31 | CS(=O)(=O)c1ccc(-c2cnc(N)c(-c3ccc(C(N)=O)cc3)c2)cc1 | 30 | 30 | > 5.83 | 25 (≈ 68 µM) | < 5 | 0.216 | 1.5 | Activity [21]: 64%; Activity [22]: inactive; MSD [12]: 3 days; MSD [10]: 7 days; Activity [14]: <40%; Activity [11]: 66%; MSD [18]: 7 days
32 | CS(=O)(=O)c1ccc(-c2cnc(N)c(-c3cccc(C(=O)NCCO)c3)c2)cc1 | 603 | 634 | – | – | – | – | – | –
33 | CNC(=O)c1ccc(-c2cc(-c3ccc(S(C)(=O)=O)cc3)cnc2N)cc1 | 79 | 71 | > 5.83 | 25 (≈ 65.5 µM) | < 5 | 0.182 | 1.7 | Activity [21]: 98%; MSD [12]: 7 days; MSD [10]: 9 days; Activity [14]: 77%; Activity [11]: 99.7%; MSD [18]: 6 days

Source: ChEMBL document CHEMBL2040800 (J Med Chem, 2012)
